Test results: patent publication US20210171576A1, “METHODS FOR TREATING CANCER WITH ACYLDEPSIPEPTIDE ANALOGS” (priority 2018, published 2021)
Where a SMILES comes first, the peptide text is derived from it. Bridges are numbered along the chain shown (N, C = ends). [ ]: non-standard residue; d: D form. The star is where a group is joined. Phe(3,5-F2) = N[C@@H](Cc1cc(F)cc(F)c1)C(=O)O; Heptenoyl(2E) = CCCC/C=C/C(=O)*; aThr = C[C@H](O)[C@H](N)C(=O)O; Pip = O=C(O)[C@@H]1CCCCN1

Columns and labels:
[1] = molecular target: T1, human mitochondrial CIpP (HsCIpP) (Homo sapiens, UniProt Q16740); experiment: Screen of ADEP analogs against HsCIpP: relative degradation (RD) index, casein-FITC degradation relative to E. coli CIpAP; format: biochemical; design: key: casein-FITC degradation by HsClpP relative to EcClpAP
T1 construct: made in house; host or cells: E. coli SG1146 (BL21(DE3) ΔclpP::cat)

[2] = system: HeLa (regular) cells; experiment: Cytotoxicity, SRB staining
Procedure: To assess the cytotoxicity of ADEP analogs, cells were seeded at 1×10^3 or 2×10^3 cells in 50 μL per well on sterile 96-well flat-bottom tissue culture plates (VWR). Growth media without any cells was included as a control. Cells were grown for at least 24 hours to allow proper adherence to the growth surface. Afterwards, ADEP analogs were serially diluted and introduced to the tissue cultures via fresh growth media at 50 μL per well. Inclusion of activators/DMSO brought the final DMSO concentration of the growth media up to a maximum of 0.5% (v:v). […] A total of four independent replicates were prepared for each cell line and for each growth condition used. Cells were grown in the presence of ADEP/DMSO for 72 hours.
(§1) To assess cell survival, live adherent cells were fixed with 10% (w:v) trichloroacetic acid (TCA) at 4° C. for 1-2 hours. The tissue culture plates were then rinsed with water to remove dead cells and cell debris and air-dried overnight. […] Absorbance at λ=510 nm (A510) was then measured using the EnSpire 2300 Multilabel Reader. […]
(§2) To determine the IC50 for the ADEP analogs, relative cell viability (RCV) values were calculated by normalizing the A510 readings in ADEP-containing sample to the DMSO-only control. […]

[3] = system: HEK293 T-REx WT cells; experiment: TUNEL assay, fluorescence microscopy; format: cell-based, human; details: 10 μM, 72 hours
Procedure: Prior to use, the cover slips were cleaned by treatment with 1 M HCl for 2-3 days, followed by thorough rinsing with distilled water and a second treatment with 95% ethanol for 16-18 hours. The cleaned cover slips were sterilized by autoclaving and dried under UV light. To ensure proper attachment of the cells, the sterilized cover slips were coated with gelatin by application of a 0.2% solution and incubation at 37° C. for at least 2 hours. Excess gelatin solution was then removed, and the cover slips were allowed to dry in a sterile environment for 2-4 hours before use.
WT cells treated with ADEP-41 were seeded at a density of 1×10^5 cells/mL (2 mL per well) to compensate for lack of cell growth and division resulting from the ADEP treatment. […]
Cells were fixed in the presence of 4% formaldehyde at room temperature for 30-45 minutes, followed by membrane permeabilization with 0.1% Triton X-100 (in PBS from Gibco) supplemented with 0.1% sodium citrate at room temperature for 30 minutes. […] Cells were mounted onto standard glass microscope slides with DAPI Fluoromount-G (Southern Biotech) for visual examination using the Eclipse 80i fluorescence microscope (Nikon) equipped with the X-Cite Series 120Q excitation light source (Excelitas Technologies). Both light and fluorescence microscopic images were captured and analyzed using the NIS-Elements Basic Research Software (Nikon).

[4] = system: HEK293 T-REx+CLPP-FLAG cells; experiment: Cytotoxicity, SRB staining, with or without Dox
Procedure: To assess the cytotoxicity of ADEP analogs, cells were seeded at 1×10^3 or 2×10^3 cells in 50 μL per well on sterile 96-well flat-bottom tissue culture plates (VWR). Growth media without any cells was included as a control. Cells were grown for at least 24 hours to allow proper adherence to the growth surface. Afterwards, ADEP analogs were serially diluted and introduced to the tissue cultures via fresh growth media at 50 μL per well. Inclusion of activators/DMSO brought the final DMSO concentration of the growth media up to a maximum of 0.5% (v:v). For experiments that involve overexpression of FLAG-tagged HsCIpP (WT or S153A mutant), Dox (Sigma-Aldrich) was also applied at 0.4 μg/mL (final concentration) as needed. A total of four independent replicates were prepared for each cell line and for each growth condition used. Cells were grown in the presence of ADEP/DMSO for 72 hours.
as §1, §2

T1 sequence (Q16740 57-277): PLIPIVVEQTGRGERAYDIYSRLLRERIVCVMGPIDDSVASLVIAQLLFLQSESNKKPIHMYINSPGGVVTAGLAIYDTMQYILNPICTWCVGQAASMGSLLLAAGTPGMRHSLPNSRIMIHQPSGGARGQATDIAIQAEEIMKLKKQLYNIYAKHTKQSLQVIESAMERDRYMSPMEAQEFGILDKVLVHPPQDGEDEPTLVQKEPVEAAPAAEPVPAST

CCCC/C=C/C(=O)N[C@@H](Cc1cc(F)cc(F)c1)C(=O)N[C@@H]1C(=O)N2CCC[C@H]2C(=O)N2CCCC[C@H]2C(=O)N[C@@H](C)C(=O)N2CCC[C@H]2C(=O)O[C@H]1C [ADEP-41] ({Heptenoyl(2E)}-[Phe(3,5-F2)][aThr]P[Pip]AP; ester 2-C)
Hs RD1 ([1]; RD value at 1 μM of the ADEP analog): 0.79
Hs RD5 ([1]; RD value at 5 μM of the ADEP analog): 0.93
Hs RD25 ([1]; RD value at 25 μM of the ADEP analog, measure of ability to activate HsCIpP): 0.96
IC50 compared across cell lines [2]: similar
TUNEL-positive cells relative to DMSO-treated WT cells [3]: about 20 times
change in IC50 relative to WT ([4]; 0.4 μg/mL Dox, HsCIpP overexpression): significant decrease in IC50
sensitivity relative to WT ([4]; without Dox): equally sensitive
